This assay has as its target Bromodomain-containing protein 4 (Homo sapiens, UniProt O60885). The experiment in a line: Assays were performed as described previously with minor modifications from the manufacturer's protocol (PerkinElmer, USA). All reagents were diluted in 50 mM HEPES, 100 mM NaCl, 0.1% BSA, pH 7.4 supplemented with 0.05% CHAPS and allowed to equilibrate to room temperature prior to addition to plates. […] Plates were sealed and incubated for a further 30 minutes, before the addition of 4 μl of streptavidin-coated donor beads (25 μg/ml) and 4 μl nickel chelate acceptor beads (25 μg/ml) under low light conditions. Plates were foil-sealed to protect from light, incubated at room temperature for 60 minutes and read on a PHERAstar FS plate reader (BMG Labtech, Germany) using an AlphaScreen 680 excitation/570 emission filter set. IC50 values were calculated in Prism 5 (GraphPad Software, USA) after normalization against corresponding DMSO controls and are given as the final concentration of compound in the 20 μl reaction volume.

Molecules are shown by their SMILES.

Drawing on ChEMBL document CHEMBL5729071, “Cyano thienotriazolodiazepines and uses thereof” (2022), this text covers IC50 for one compound.

`Cc1sc2c(c1C)C(c1ccc(C#N)cc1)=N[C@@H](CC(=O)OC(C)(C)C)c1nnc(C)n1-2`: the IC50 (usually the point on the concentration scale where inhibition reaches its midpoint) is 97 nM.
